Entries after “also recorded” stand apart in the source; their conditions may differ.
Legend:
[1] = test system: draining lymph node cells; experiment: Proliferation assay, ^3H-thymidine incorporation after s.c. peptide immunization; assay type: cell-based, mouse
Description: (§1) FIGS. 2A-2F. Pathogenic AQP4 determinants bind I-A^b with high affinity and elicit proliferation of AQP4: I-A^b-specific TCR-bearing T cells in AQP4-deficient mice. (FIG. 2A) WT or AQP4^−/− mice were immunized s.c. with peptides indicated. Peptide-specific proliferation of draining lymph node cells was measured by 3H-thymidine incorporation (mean±SEM, representative of five experiments). (FIG. 2B) Lymph node cells from AQP4 immunized WT or AQP4^−/− mice were cultured for 3 days with cognate antigen under Th17 polarizing conditions. AQP4 p133-149- and p202-218-specific Th17 cells from AQP4/donors induce paralysis in WT recipient mice. (FIG. 2C) IEDB, an in silico method for predicting determinants within proteins that bind MHC alleles, was used to identify AQP4 amino acid sequences anticipated to bind I-A^b for recognition by AQP4-specific/I-A^b-restricted CD4^+ T cells. 1/IC50 is plotted against the first amino acid for each overlapping AQP4 15 mer. Peaks correspond to increased predicted binding affinity. (FIG. 2D) Purified I-A^b molecules were tested biochemically for peptide binding affinity using a competitive binding assay between a radiolabeled high-affinity competitor peptide and unlabeled peptides (22). Lower IC50 values indicate higher binding affinity. Boxed amino acids designate the core binding regions. (FIGS. 2E-2F) Lymph node T cells isolated from WT or AQP4−/− mice immunized with AQP4 p133-149 or p202-218 were stained with I-A^b:p133-149 and […] tetramers, bead-enriched and analyzed by flow cytometry. […] Each data point represents one mouse. ****p<0.0001 (Mann Whitney U test).
FIGS. 4A-4B. Negative selection of AQP4 p133-149-reactive T cells is bypassed partially in mice deficient in thymic AQP4 expression. (FIG. 4A) AQP4^−/− WT, Foxn1cre-AQP4^fl/fl, Aire^−/−, or Foxn1cre-Fezf2^fl/fl mice were immunized s.c. with peptides indicated. Peptide-specific proliferation of draining lymph node cells was measured by 3H-thymidine incorporation (mean±SEM, representative of five experiments). Comparisons within the five experiments for p133-149 at […]: WT vs. AQP4^−/− (p=0.008), WT vs. Foxn1cre-AQP4^fl/fl (p=0.008). (FIG. 4B) Ten days after peptide immunization, CD4^+ T cells from draining lymph nodes were analyzed for I-A^b: peptide tetramer binding by flow cytometry. Each data point represents the frequency (mean±SEM) of CD4^+ T cells bound to cognate antigen-tetramer in a single mouse. […] For p133-149: WT vs. Aire^−/− (p=0.9), WT vs. Foxn1cre-Fezf2^fl/fl (p=0.3). For p202-218: WT vs. Foxn1cre-AQP4^fl/fl (p=0.3), WT vs. Aire^−/− (p=0.06).
Proliferation assays. Mice were immunized subcutaneously (s.c.) with 100 μg of AQP4, MOG or IRBP peptide in CFA containing 400 μg M. tuberculosis H37Ra (Difco Laboratories). Lymph nodes were harvested on day 10-12 and cultured at 2×10^5/well with various concentrations of peptide in triplicate wells for 72 hours. […] of ^3H-thymidine was added 18 hours prior to cell harvest, and data are presented as counts per minute (CPM). Stimulation Index (SI) was calculated by dividing CPM in wells with Ag by CPM in wells with no antigen controls of each assay test group.

[2] = biological target: T1, MHC class II I-A^b molecules (Mus musculus, UniProt P14434+P14483); experiment: I-A^b affinity assay (competitive binding against a radiolabeled high-affinity peptide); conditions: purified I-A^b; for peptide binding affinity for I-A^b: unlabeled peptide vs radiolabeled high-affinity competitor peptide
T1 construct: made in house
T1 sequence (P14434 24-256): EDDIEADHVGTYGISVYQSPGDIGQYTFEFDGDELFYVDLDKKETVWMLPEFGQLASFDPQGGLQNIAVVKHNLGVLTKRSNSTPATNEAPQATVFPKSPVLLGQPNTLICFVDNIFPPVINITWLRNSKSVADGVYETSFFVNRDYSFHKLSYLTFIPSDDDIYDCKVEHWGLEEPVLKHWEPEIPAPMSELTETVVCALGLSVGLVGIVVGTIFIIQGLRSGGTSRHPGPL
T1 sequence (P14483 28-265): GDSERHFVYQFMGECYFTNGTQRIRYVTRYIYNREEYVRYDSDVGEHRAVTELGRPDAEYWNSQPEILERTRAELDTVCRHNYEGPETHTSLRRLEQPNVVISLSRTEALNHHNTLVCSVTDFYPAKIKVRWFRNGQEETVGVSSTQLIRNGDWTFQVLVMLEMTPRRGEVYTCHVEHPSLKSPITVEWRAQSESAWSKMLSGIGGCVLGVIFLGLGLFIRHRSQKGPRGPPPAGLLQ
Description: as §1
Both AQP4 p133-149 and p202-218 are predicted to bind MHC II (I-A^b) with high affinity according to the Immune Epitope Database (IEDB) (FIG. 2C), an in silico method for predicting determinants within proteins that bind allele-specific MHC molecules for presentation to T cells (21). We have now examined AQP4 peptide affinity for I-A^b biochemically. I-A^b molecules that were purified by affinity chromatography were tested in a competitive binding assay between a radiolabeled high-affinity competitor peptide and unlabeled peptides (22). Indeed, peptides containing the two pathogenic AQP4 T cell determinants bound I-A^b with higher affinity than the nonpathogenic AQP4 p24-35 T cell epitope or MOG p35-55 (FIG. 2D).
I-A^b affinity Assay. Purification of MHC class II I-A^b molecules by affinity chromatography, and the performance of assays based on the inhibition of binding of a high affinity radiolabeled peptide to quantitatively measure peptide binding, were performed as described (22). Lower IC50 values indicate higher binding affinity. Excellent binders have affinities less than 100 nM and good binders have affinities less than 1000 nM.

[3] = AQP4^−/− mice immunized with the peptide
[4] = Aire^−/− mice immunized with the peptide
[5] = Foxn1cre-AQP4^fl/fl mice immunized with the peptide
[6] = WT mice immunized with the peptide

| Sequence | peptide-specific proliferation of draining lymph node cells [1, 3] | peptide-specific proliferation of draining lymph node cells [1, 4] | peptide-specific proliferation of draining lymph node cells [1, 5] | peptide-specific proliferation of draining lymph node cells [1, 6] | I-A^b binding affinity relative to MOG p35-55 ([2]; competitive binding assay) | peptide binding affinity for I-A^b [2] | peptide binding affinity for I-A^b ([2]; listed as p202-218) | peptide-specific proliferation of draining lymph node cells ([1]; AQP4^−/− mice immunized with the peptide, listed as p133-149) | peptide-specific proliferation of draining lymph node cells ([1]; Foxn1cre-Fezf2^fl/fl mice immunized with the peptide) |
| --- | --- | --- | --- | --- | --- | --- | --- | --- | --- |
| LFAINYTGASMNPARSF [AQP4 p202-218] | robust proliferative responses; also recorded: strong proliferation | no significant responses | only marginal responses | no significant responses | more than ten times greater affinity than MOG p35-55 | highest affinity among peptides examined in this report | bound I-A^b avidly |  |  |
| LYLVTPPSVVGGLGVT [AQP4 p133-149] | robust proliferative T cell responses | little or no proliferation | induced proliferation in Foxn1cre-AQP4^fl/fl mice, but not to the same level as in AQP4^−/− mice | little or no proliferation |  | bound I-A^b avidly |  | robust proliferative responses | little or no proliferation |

Source: US20250052751A1, “COMPOSITIONS AND METHODS FOR DIAGNOSING AUTOIMMUNE AQUAPORINOPATHY” (The Regents of the University of California, priority 2023, published 2025)
